Assay [1] has as its system SKBR-3 cells. Briefly: Flow cytometric measurement of penetratin uptake and endo-lysosomal release. The assay is classed as cell-based. As to conditions: atorvastatin 100 nM and 10 μM, 72 h pre-treatment, versus control. In general terms: Flow cytometry measures light scatter and fluorescence of single cells or particles in a stream.
In assay [2] the test system is HMG-CoA reductase expression in MDA-MD-231 cells. As to conditions: atorvastatin at a micromolar concentration, ref [57]; cited from earlier work.
In the next assay the test system is MDA-MB-231 cells. The assay can be described thus: Membrane fluidity, fluorescence anisotropy of TMA-DPH. The class given is cell-based. As to conditions: atorvastatin 72 h.
Assay [3] relates to HMG-CoA reductase expression in SKBR-3 cells. As to conditions: atorvastatin at a micromolar concentration, ref [57]; cited from earlier work.
Assay [4] deals with SKBR-3 cells. The assay can be described thus: Membrane compactness, generalized polarization of Laurdan. The assay is classed as cell-based. As to conditions: atorvastatin 72 h, 2 μM Laurdan.

This is an account of results in paper doi:10.1101/2020.08.04.236984v1 (bioRxiv, 2020).

On to `CC(C)c1c(C(=O)Nc2ccccc2)c(-c2ccccc2)c(-c2ccc(F)cc2)n1CC[C@@H](O)C[C@@H](O)CC(=O)O` [atorvastatin], for which the “amount of penetratin leaving the endo-lysosomal compartment” value with SKBR-3 cells [1] is “significantly higher”. Further, the “change in HMG-CoA reductase enzyme expression” value in assay [2] was “no change”. Besides, the “effect on membrane microviscosity (TMA-DPH anisotropy)” value with MDA-MB-231 cells is listed as “unexpected increase”. Also, in assay [3], the “induction of HMG-CoA reductase expression” value was 4 fold. Further, the “effect on membrane compactness (generalized polarization of Laurdan)” value with SKBR-3 cells [4] was “decrease”.
